Measurements as given in patent publication US5962487A, “Antipicornaviral compounds and methods for their use and preparation” (Agouron Pharmaceuticals, Inc., priority 1997, dated 1999).
pEC50, pKi: −log10 of the molar value.

How the values were obtained:
in vitro [1] = type: cell-based; details: human, hi-hela cells
Experimental: (§1) The ability of compounds to protect cells against CVA-21 or CVB-3 infection was measured by the XTT dye reduction method. Briefly, HI-HeLa cells were infected with CVA-21 or CVB-3 at a multiplicity of infection (m.o.i.) of 0.05 (CVA-21) and 0.08 (CVB-3) or mock-infected with medium only. Infected or uninfected cells were resuspended at 4×10^4 cells per mL and incubated with appropriate concentrations of drug. One day later, XTT/PMS was added to test plates, and the amount of formazan produced was quantified spectrophotometrically at 450/650 nm. The EC50 was calculated as the concentration of drug that increased the percentage of formazan production in drug-treated, virus-infected cells to 50% of that produced by drug-free, uninfected cells. The 50% cytotoxic dose (CC50) was calculated as the concentration of drug that decreased the percentage of formazan produced in drug-treated, uninfected cells to 50% of that produced in drug-free, uninfected cells. The therapeutic index (TI) was calculated by dividing the CC50 by the EC50.
(§2) The Coxsackie strains A-21 (CVA-21) and B-3 (CVB-3) were purchased from American Type Culture Collection (ATCC). Virus stocks were propagated and antiviral assays were performed in HI-HeLa cells (ATCC). Cells were grown in Minimal Essential Medium with 10% fetal bovine serum.

[2] = biological target: T1, Rhinovirus 3C protease (RVP) serotype 2 (Human rhinovirus 2, UniProt P04936); test: Inhibition of Rhinovirus Protease, serotype 2 (FRET assay); type: biochemical; details: enzyme start experiments, read-out: kobs/I
T1 construct: Recombinant Rhinovirus 3C proteases from serotypes 14, 16, 2 or 89 were prepared; made in house
T1 sequence (P04936 1508-1690): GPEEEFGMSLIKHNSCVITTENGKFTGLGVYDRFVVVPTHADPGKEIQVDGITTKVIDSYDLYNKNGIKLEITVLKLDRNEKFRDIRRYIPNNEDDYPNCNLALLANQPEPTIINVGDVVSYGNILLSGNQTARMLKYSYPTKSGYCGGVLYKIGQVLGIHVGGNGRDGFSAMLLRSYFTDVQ
Experimental: (§3) Stock solutions (50 mM, in DMSO) of various compounds were prepared; dilutions were in the same solvent. Recombinant Rhinovirus 3C proteases from serotypes 14, 16, 2 or 89 were prepared by the following standard chromatographic procedures: (1) ion exchange using Q Sepharose Fast Flow from Pharmacia; (2) affinity chromatography using Affi-Gel Blue from Biorad; and (3) sizing using Sephadex G-100 from Pharmacia. Assays contained 2% DMSO, 50 mM tris pH 7.6, 1 mM EDTA, a compound at the indicated concentrations, approximately 1 μM substrate, and 50-100 nM protease. For Ki determinations, the compound and the enzyme were preincubated for 10 minutes at 30° C. prior to addition of the substrate (substrate start). The kobs/I values were obtained from reactions initiated by addition of enzyme rather than substrate. RVP activity is measured in the fluorescence resonance energy transfer assay. The substrate was (N-terminal) DABCYL-(Gly-Arg-Ala-Val-Phe-Gln-Gly-Pro-Val-Gly)-EDANS. In the uncleaved peptide, the EDANS fluorescence was quenched by the proximal DABCYL moiety. When the peptide was cleaved, the quenching was relieved, and activity was measured as an increase in fluorescence signal.
(§4) In the above table, all data is for RVP serotype-14 unless otherwise noted in parentheses. All strains of human rhinovirus (HRV) were purchased from American Type Culture Collection (ATCC), except for serotype 14, which was produced from the infectious cDNA clone constructed and supplied to us by Dr. Roland Rueckert at the Institute for Molecular Virology, University of Wisconsin, Madison, Wis. The column designated INHIB represents the percent inhibition, with the concentration of the compound in μM indicated in parentheses, unless Ki was assigned as designated by (Ki), at 10 minute preincubation with 50 nM RVP prior to addition of substrate was used. The data in the column designated kobs/I was measured from progress curves in enzyme start experiments.

[3] = biological target: T2, Rhinovirus 3C protease (RVP) serotype 16 (Human rhinovirus 16, UniProt Q82122); test: Inhibition of Rhinovirus Protease, serotype 16 (FRET assay); type: biochemical; details: enzyme start experiments, read-out: kobs/I
T2 construct: Recombinant Rhinovirus 3C proteases from serotypes 14, 16, 2 or 89 were prepared; made in house
T2 sequence (Q82122 1511-1693): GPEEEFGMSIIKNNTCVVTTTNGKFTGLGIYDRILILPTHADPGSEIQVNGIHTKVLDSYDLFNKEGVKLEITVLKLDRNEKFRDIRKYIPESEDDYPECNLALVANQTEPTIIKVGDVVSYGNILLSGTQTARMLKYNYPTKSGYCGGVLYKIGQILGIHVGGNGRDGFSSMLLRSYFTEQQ
Experimental: as §3, §4

MRC5 cells = test: in vitro; type: cell-based
Experimental: (§5) The Echovirus strain 11 (ECHO-11) and Enterovirus strain 70 (ENT-70) were purchased from American Type Culture Collection (ATCC). Virus stocks were propagated and antiviral assays were performed in MRC5 cells (ATCC). Cells were grown in Minimal Essential Medium with 10% fetal bovine serum.
as §1, with “ECHO-11” for “CVA-21”, “ENT-70” for “CVB-3”, “MRC5” for “HI-HeLa”, “0.0013 (ECHO-11)” for “0.05 (CVA-21)”, “0.0017 (ENT-70)” for “0.08 (CVB-3)”, “2×10^4” for “4×10^4”

in vitro [4] = type: cell-based; details: human, mrc5 cells
Experimental: as §5
as §1, with “ECHO-11” for “CVA-21”, “ENT-70” for “CVB-3”, “MRC5” for “HI-HeLa”, “0.0013 (ECHO-11)” for “0.05 (CVA-21)”, “0.0017 (ENT-70)” for “0.08 (CVB-3)”, “2×10^4” for “4×10^4”

in vitro [5] = type: cell-based; details: human, hi-hela cells; remark: listed apart in the source
Outline: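 HI-HeLa cells infected with HRV-14 at m.o.i. 0.13 or mock-infected, incubated with compounds for two days; XTT/PMS formazan read at 450/650 nm. EC50 as concentration restoring formazan to 50% of mock-infected level; CC50 from mock-infected cells; TI = CC50/EC50.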

ECHO-11 = test: Echovirus-11 MRC5 Cell Culture Assay; type: cell-based, Echovirus strain 11
Experimental: as §5
as §1, with “ECHO-11” for “CVA-21”, “ENT-70” for “CVB-3”, “MRC5” for “HI-HeLa”, “0.0013 (ECHO-11)” for “0.05 (CVA-21)”, “0.0017 (ENT-70)” for “0.08 (CVB-3)”, “2×10^4” for “4×10^4”

ENT-70 = test: Enterovirus-70 MRC5 Cell Culture Assay; type: cell-based, Enterovirus strain 70
Experimental: as §5
as §1, with “ECHO-11” for “CVA-21”, “ENT-70” for “CVB-3”, “MRC5” for “HI-HeLa”, “0.0013 (ECHO-11)” for “0.05 (CVA-21)”, “0.0017 (ENT-70)” for “0.08 (CVB-3)”, “2×10^4” for “4×10^4”

CVA-21 = test: Anticoxsackieviral HI-HeLa Cell Culture Assay, CVA-21; type: cell-based, Coxsackie strain A-21
Experimental: as §1, §2

[6] = biological target: T3, Rhinovirus 3C protease (RVP) serotype-14 (Human rhinovirus 14, UniProt P03303); test: Inhibition of Rhinovirus Protease, serotype 14 (FRET assay); type: biochemical; details: for kinact/KI: read-out: kobs/I
T3 construct: Recombinant Rhinovirus 3C proteases from serotypes 14, 16, 2 or 89 were prepared; made in house
T3 sequence (P03303 1538-1719): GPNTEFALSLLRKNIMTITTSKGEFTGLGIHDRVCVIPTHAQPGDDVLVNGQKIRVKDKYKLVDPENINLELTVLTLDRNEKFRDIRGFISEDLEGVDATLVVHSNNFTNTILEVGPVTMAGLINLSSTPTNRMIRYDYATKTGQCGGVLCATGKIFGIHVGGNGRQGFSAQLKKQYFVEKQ
Outline: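 Recombinant HRV 3C protease (50–100 nM) in 50 mM tris pH 7.6, 1 mM EDTA, 2% DMSO, with ~1 μM DABCYL-GRAVFQGPVG-EDANS FRET substrate; cleavage read as fluorescence increase. Ki: compound and enzyme preincubated 10 min at 30° C before substrate start; kobs/I from enzyme-start progress curves. Values are percent inhibition at stated μM, or Ki.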

HRV-14 = test: Antirhinoviral HI-HeLa Cell Culture Assay (cell protection, XTT), HRV-14; type: cell-based, human rhinovirus; details: for TI: CC50/EC50, HRV serotype-14, 2880 min; for pEC50: Rhinovirus B, HRV14, 48 h, HRV serotype-14 infected HI-HeLa cells, XTT, two days
Outline: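 HI-HeLa cells infected at m.o.i. 0.13 (or mock-infected), 8×10^5 cells/mL, incubated with compounds for two days; XTT/PMS formazan read at 450/650 nm. EC50 is the concentration restoring formazan in infected cells to 50% of compound-free mock-infected; CC50 is 50% decrease in mock-infected cells; TI = CC50/EC50.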

HRV 1A = test: Antirhinoviral HI-HeLa Cell Culture Assay (cell protection, XTT), HRV 1A; type: cell-based, human rhinovirus
Experimental: (§6) In the Cell Protection Assay, the ability of compounds to protect cells against HRV infection was measured by the XTT dye reduction method. This method is described in O. S. Weislow, R. Kiser, D. L. Fine, J. Bader, R. H. Shoemaker, and M. R. Boyd, J. Natl. Cancer Inst. 1989, 81, 577-586, which document is entirely incorporated herein by reference.
(§7) HI-HeLa cells were infected with HRV-14 (unless otherwise noted) at a multiplicity of infection (m.o.i.) of 0.13 (virus particles/cell) or mock-infected with medium only. Infected or mock-infected cells were resuspended at 8×10^5 cells per mL and incubated with appropriate concentrations of compounds of formulas I and II. Two days later, XTT/PMS was added to test plates, and the amount of formazan produced was quantified spectrophotometrically at 450/650 nm. The EC50 was calculated as the concentration of compound that increased the percentage of formazan production in compound-treated, virus-infected cells to 50% of that produced by compound-free mock-infected cells. The 50% cytotoxic dose (CC50) was calculated as the concentration of compound that decreased the percentage of formazan produced in compound-treated, mock-infected cells to 50% of that produced in compound-free, mock-infected cells. The therapeutic index (TI) was calculated by dividing the CC50 by the EC50. […]

HRV 10 = test: Antirhinoviral HI-HeLa Cell Culture Assay (cell protection, XTT), HRV 10; type: cell-based, human rhinovirus
Experimental: as §6, §7

## CCOC(=O)/C=C/[C@H](CCC(N)=O)NC(=O)[C@H](Cc1ccc(OC)cc1)N(C)C(=O)[C@H](CC(C)C)NC(=O)SCC [Compound 4]
In vitro [1]
  CC50 at 24 h: 200 µM
[2]
  kinact/KI: 541 M⁻¹ s⁻¹
[3]
  kinact/KI: 2010 M⁻¹ s⁻¹
MRC5 cells
  CC50: 200 µM
In vitro [4]
  CC50 at 24 h: 200 µM
In vitro [5]
  CC50 at 48 h: 200 µM
ECHO-11; CC50/EC50, ECHO-11, 1440 min
  TI: 62.5
ECHO-11; Echovirus, 24 h, ECHO-11 infection of MRC5 cells, XTT, one day
  pEC50: 5.49
ENT-70; CC50/EC50, ENT-70, 1440 min
  TI: 667
ENT-70; Enterovirus, 24 h, ENT-70 infection of MRC5 cells, XTT, one day
  pEC50: 6.52
CVA-21; 24 h, CVA-21 infection of Hi-HeLa cells, XTT, one day
  pEC50: 5.74
CVA-21; CC50/EC50, CVA-21
  TI: 111
[6]; RVP serotype-14, 10 minute preincubation with 50 nM RVP prior to addition of substrate, read-out: INHIB (Ki)
  pKi: 5.54
[6]
  kinact/KI: 43800 M⁻¹ s⁻¹
HRV-14
  TI: 870
  pEC50: 6.64

## CCOC(=O)/C=C/[C@H](CCC(N)=O)NC(=O)[C@H](Cc1ccccc1)N(C)C(=O)[C@@H](NC(=O)SCC)C(C)C [Compound 34, Ethyl-3-(Ethylthiocarbonyl-L-Val-L-N-Me-Phe-L-Gln)-E-Propenoate]
[2]
  kinact/KI: 940 M⁻¹ s⁻¹
[3]
  kinact/KI: 2060 M⁻¹ s⁻¹
In vitro [5]
  CC50 at 48 h: > 100 µM
[6]
  kinact/KI: 13400 M⁻¹ s⁻¹
HRV-14
  TI: > 312
  pEC50: 6.49

## CCOC(=O)/C=C/[C@H](CCC(N)=O)NC(=O)[C@H](Cc1ccccc1)N(C)C(=O)[C@@H](NC(=O)SC1CCCC1)C(C)C [Compound 35, Ethyl-3-(Cyclopentylthiocarbonyl-L-Val-L-N-Me-PHe-L-Gln-)-E-Propenoate]
[2]
  kinact/KI: 1600 M⁻¹ s⁻¹
[3]
  kinact/KI: 3480 M⁻¹ s⁻¹
In vitro [5]
  CC50 at 48 h: > 100 µM
[6]
  kinact/KI: 22500 M⁻¹ s⁻¹
HRV-14
  TI: > 526
  pEC50: 6.72

## CCSC(=O)N[C@@H](CC(C)C)C(=O)N(C)[C@@H](Cc1ccccc1)C(=O)N[C@H](/C=C/C(=O)N(C)OC)CCC(N)=O [Compound 36, N-Methoxy-N-Methyl-3-(Ethylthiocarbonyl-L-Leu-L-N-Me-Phe-L-Gln)-E-Propenamide]
[2]
  kinact/KI: 400 M⁻¹ s⁻¹
[3]
  kinact/KI: 750 M⁻¹ s⁻¹
In vitro [5]
  CC50 at 48 h: > 100 µM
[6]
  kinact/KI: 2000 M⁻¹ s⁻¹
HRV-14
  TI: > 9
  pEC50: 4.95

## CCOC(=O)/C=C/[C@H](CCC(N)=O)NC(=O)[C@@H]1CCc2ncc(NC(=O)OCc3ccccc3)c(=O)n21 [Compound 37, Ethyl-3-[(S)-3-(CBZ-Amino)4-Oxo-4,6,7,8-Tetrahydropyrrolo [1,2-α]Pyrimidine-6-L-Gln]-E-Propenoate]
[2]
  kinact/KI: 2500 M⁻¹ s⁻¹
[3]
  kinact/KI: 4000 M⁻¹ s⁻¹
In vitro [5]
  CC50 at 48 h: > 100 µM
[6]
  kinact/KI: 12400 M⁻¹ s⁻¹
HRV-14
  TI: > 11
  pEC50: 5.05

## CCOC(=O)/C=C/[C@H](CCC(N)=O)NC(=O)[C@H](Cc1ccccc1)N(C)C(=O)[C@H](CC(C)C)NC(=O)c1cc(C)on1 [Compound 59]
HRV 1A; CC50/EC50, HRV 1A, 2880 min
  TI: > 250
HRV 1A; Human rhinovirus sp., HRV 1A infected HI-HeLa cells
  pEC50: 6.40
In vitro [5]
  CC50 at 48 h: > 100 µM
HRV 10; CC50/EC50, HRV 10, 2880 min
  TI: > 250
HRV 10; Human rhinovirus sp., HRV 10 infected HI-HeLa cells
  pEC50: 6.40
[6]
  kinact/KI: 108000 M⁻¹ s⁻¹
HRV-14
  TI: > 714
  pEC50: 6.85
